Experimental data taken from patent publication US9499495B2, “Quinazolines and azaquinazolines as dual inhibitors of RAS/RAF/MEK/ERK and PI3K/AKT/PTEN/mTOR pathways” (Asana Biosciences, LLC, priority 2013, dated 2016).

Experiments:
Type in all cases: cell-based
pERK in A375 cells = assay: In Cell Western (ICW) assay, pERK in A375 cells; conditions: Homo sapiens, A-375, 3 h treatment
Procedure, shortened: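 RKO or A375 cells were exposed to compounds for 3 h at 37 °C, then fixed and stained in-cell with antibodies to pERK1/2 (T202/Y204), pS6RP or pAKT T308, followed by a Eu-labelled secondary. Time-resolved fluorescence (340/615 nm) was normalized to Hoechst, and IC50 values were fitted sigmoidally against DMSO as 0% inhibition.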

pS6RP in RKO cells = assay: In Cell Western (ICW) assay, pS6RP in RKO cells; conditions: Homo sapiens, 3 h treatment
Protocol: (§1) Cell lines A375, A2058 and RKO obtained from the ATCC as provided above, were grown, and after attaining ˜80% confluency were trypsinized, centrifuged and resuspended in fresh media. The cells were seeded at the specified density (20,000 to 50,000) in a 96-well format black-well clear bottom plate (Corning) and incubated overnight at 37° C. in a 5% CO2 incubator. The next day, compound dilutions of test compounds were prepared in 100% DMSO followed by dilutions in respective media. Treatment of test compounds was performed for 3 h at 37° C. in 5% CO2 incubator. Following 3 h drug treatment, the conditional media was discarded and the cells were washed once with cPBS (PBS containing 0.1% magnesium chloride hexahydrate and 0.1% anhydrous calcium chloride) and fixed with 4% paraformaldehyde in cPBS for 1 h at rt. After fixing, the cells were given three washes using cPBST (cPBS containing 0.1% Triton™ X-100 reagent) and then blocked using blocking solution (5% skimmed milk powder or 5% BSA prepared in cPBST) for 2 h at rt with shaking at 300 rpm. The cells were again washed thrice with cPBST and incubated with primary antibody phospho-p44/42 MAPK(Erk1/2)(Thr202/204) antibody (Cell Signaling, Catalog # 9101L), phospho S6 ribosomal protein (Cell Signaling, Catalog #4858L), phospho AKT (Thr 308) (Cell Signaling, Catalog #9275) or phospho AKT (Ser 473) (Cell Signaling, Catalog #4060L) in specified dilutions (1:500-1:2500), prepared in respective blocking solutions, in a racker overnight at 4° C. The next day, the cells were washed with 1× Delfia® wash buffer (4×1 wash) and incubated with secondary antibody (Delfia®-Eu-N1 labeled anti-rabbit antibody; PerkinElmer, Catalog #AD0105; dilutions: 1:2000 to 1:6000 in Delfia® assay buffer (PerkinElmer, Catalog #1244-111)) for 2 h at rt in the dark at 300 rpm. The cells were then given four washes with 1× Delfia® wash buffer and incubated with Wallac Delfia® Enhancement solution (100 μL; PerkinElmer, Catalog #1244-105) for 20 min at rt in the dark at 300 rpm. The fluorescence emission was then read at 615 nm with an excitation wavelength of 340 nm using a Victor V5 Fluorometer (Perkin Elmer, US). The cells were then washed once with 1×cPBS and incubated with 100 μL of 0.5 mg/mL of Hoechst 33258 dye prepared in cPBS and read at 460 nm with 355 nm excitation, thereby evaluating the correction factor.
(§2) The % inhibition for the test compounds of formula (I) (new chemical entities (NCEs)) was calculated keeping DMSO control as 0% and the IC50 values were determined using sigmoidal dose response curve fit in GraphPad Prism® v5 software.

RKO cells = assay: XTT assay for cell viability, RKO cells; conditions: Homo sapiens, 72 h
Procedure, shortened: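 RKO and A375 cells seeded at 1000-2000/well overnight, then exposed to compound for 72 h at 37° C., 5% CO2. XTT (1 mg/ml)/PMS (25 μM) added for 2-3 h; absorbance at 450 nm. Growth relative to DMSO control (100%); GI50 from sigmoidal dose-response fit.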

pAKT (T308) in RKO cells = assay: In Cell Western (ICW) assay, pAKT-T308 in RKO cells; conditions: Homo sapiens, 3 h treatment
Protocol: as §1, §2

pERK in RKO cells = assay: In Cell Western (ICW) assay, pERK in RKO cells; conditions: Homo sapiens, 3 h treatment
Protocol: as §1, §2

IC50 (pERK in A375 cells) | IC50 (pS6RP in RKO cells) | IC50 (pAKT (T308) in RKO cells) | IC50 (pERK in RKO cells) | SMILES | IC50 (RKO cells)
100 to 1000 nM | – | – | – | C[C@H]1COCCN1c1nc(-c2cnc(N)cc2F)nc2ccc(-c3cccc(NS(=O)(=O)CCCF)c3F)nc12 [Example 129, (S)-N-(3-(2-(6-amino-4-fluoropyridin-3-yl)-4-(3-methylmorpholino)pyrido[3,2-d]pyrimidin-6-yl)-2-fIuorophenyl)-3-fluoropropane-1-sulfonamide] | –
1 to 100 nM | 100 to 1000 nM | – | – | COc1cc2nc(-c3cnc(N)nc3)nc(N3CCOCC3)c2cc1-c1cccc(NS(=O)(=O)CCCF)c1F [Example 11, N-(3-(2-(2-aminopyrimidin-5-yl)-7-methoxy-4-morpholinoquinazolin-6-yl)-2-fluorophenyl)-3-fluoropropane-1-sulfonamide] | 100 to 1000 nM
1 to 100 nM | – | 1 to 10 µM | – | CNc1ccc(-c2nc(N3CCOCC3)c3nc(-c4cccc(NS(=O)(=O)CCCF)c4F)ccc3n2)cn1 [Example 113, 3-fluoro-N-(2-fluoro-3-(2-(6-(methylamino)pyridin-3-yl)-4-morpholinopyrido[3,2-d]pyrimidin-6-yl)phenyl)propane-1-sulfonamide] | 100 to 1000 nM
100 to 1000 nM | – | – | – | O=S(=O)(CCCF)Nc1cccc(-c2ccc3nc(-c4ccc(NCCCO)nc4)nc(N4CCOCC4)c3n2)c1F [Example 111, 3-fluoro-N-(2-fluoro-3-(2-(6-((3-hydroxypropyl)amino)pyridin-3-yl)-4-morpholinopyrido[3,2-d]pyrimidin-6-yl)phenyl)propane-1-sulfonamide] | –
1 to 100 nM | 100 to 1000 nM | – | 1 to 100 nM | COc1cc(-c2cccc(NS(=O)(=O)CCCF)c2F)cc2c(N3CCOC[C@H]3C)nc(-c3cnc(N)cc3F)nc12 [Example 135, (R)-N-(3-(2-(6-amino-4-fluoropyridin-3-yl)-8-methoxy-4-(3-methylmorpholino)quinazolin-6-yl)-2-fluorophenyl)-3-fluoropropane-1-sulfonamide] | 100 to 1000 nM
100 to 1000 nM | – | – | – | CCCS(=O)(=O)Nc1cccc(-c2ccc3nc(-c4cnc(N)nc4)nc(N4CCOCC4)c3n2)c1F [Example 7, N-(3-(2-(2-aminopyrimidin-5-yl)-4-morpholinopyrido[3,2-d]pyrimidin-6-yl)-2-fluorophenyl)propane-1-sulfonamide] | 100 to 1000 nM
1 to 100 nM | 100 to 1000 nM | – | 1 to 100 nM | C[C@@H]1COCCN1c1nc(-c2ccc(N)nc2)nc2ccc(-c3cccc(NS(=O)(=O)CCCF)c3F)nc12 [Example 96, (R)-N-(3-(2-(6-aminopyridin-3-yl)-4-(3-methylmorpholino)pyrido[3,2-d]pyrimidin-6-yl)-2-fluorophenyl)-3-fluoropropane-1-sulfonamide] | 100 to 1000 nM
100 to 1000 nM | – | – | – | Cc1cc(-c2nc(N3CCOCC3)c3nc(-c4cccc(NS(=O)(=O)CCCF)c4F)ccc3n2)cnc1N [Example 90, N-(3-(2-(6-amino-5-methylpyridin-3-yl)-4-morpholinopyrido[3,2-d]pyrimidin-6-yl)-2-fluorophenyl)-3-fluoropropane-1-sulfonamide] | –
1 to 100 nM | 1 to 100 nM | – | 1 to 100 nM | COc1cc(-c2cccc(NS(=O)(=O)CCCF)c2F)cc2c(N3CCOC[C@H]3C)nc(-c3cnc(N)c(F)c3)nc12 [Example 134, (R)-N-(3-(2-(6-amino-5-fluoropyridin-3-yl)-8-methoxy-4-(3-methylmorpholino)quinazolin-6-yl)-2-fluorophenyl)-3-fluoropropane-1-sulfonamide] | 100 to 1000 nM
1 to 100 nM | 100 to 1000 nM | – | – | C[C@@H]1COCCN1c1nc(-c2cnc(N)nc2)nc2ccc(-c3cccc(NS(=O)(=O)CCCF)c3F)nc12 [Example 97, (R)-N-(3-(2-(2-aminopyrimidin-5-yl)-4-(3-methylmorpholino)pyrido[3,2-d]pyrimidin-6-yl)-2-fluorophenyl)-3-fluoropropane-1-sulfonamide] | 100 to 1000 nM
100 to 1000 nM | – | – | – | CCCS(=O)(=O)Nc1cccc(-c2ccc3nc(-c4ccc(N)nc4)nc(N4CCOCC4)c3n2)c1F [Example 86, N-(3-(2-(6-aminopyridin-3-yl)-4-morpholinopyrido[3,2-d]pyrimidin-6-yl)-2-fluorophenyl)propane-1-sulfonamide] | 100 to 1000 nM
1 to 100 nM | – | – | – | Nc1ncc(-c2nc(N3CCOCC3)c3cc(-c4cccc(NS(=O)(=O)CCCF)c4F)cc(N4CCOCC4)c3n2)cn1 [Example 69, N-(3-(2-(2-aminopyrimidin-5-yl)-4,8-dimorpholinoquinazolin-6-yl)-2-fluorophenyl)-3-fluoropropane-1-sulfonamide] | –
1000 to 10000 nM | – | – | – | Nc1cc(C(F)(F)F)c(-c2nc(N3CCOCC3)c3nc(-c4cccc(NS(=O)(=O)c5c(F)cccc5F)c4F)ccc3n2)cn1 [Example 106, N-(3-(2-(6-amino-4-(trifluoromethyl)pyridin-3-yl)-4-morpholinopyrido[3,2-d]pyrimidin-6-yl)-2-fluorophenyl)-2,6-difluorobenzenesulfonamide] | –
1 to 100 nM | – | – | – | CNC(=O)Nc1ccc(-c2nc(N3CCOCC3)c3cc(-c4cccc(NS(=O)(=O)CCCF)c4F)cc(OC)c3n2)cn1 [Example 39, 3-fluoro-N-(2-fluoro-3-(8-methoxy-2-(6-(3-methylureido)pyridin-3-yl)-4-morpholinoquinazolin-6-yl)phenyl)propane-1-sulfonamide] | –
100 to 1000 nM | – | – | – | Nc1ccc(-c2nc(N3CCOCC3)c3nc(-c4cccc(NS(=O)(=O)c5c(F)cccc5F)c4F)ccc3n2)cn1 [Example 95, N-(3-(2-(6-aminopyridin-3-yl)-4-morpholinopyrido[3,2-d]pyrimidin-6-yl)-2-fluorophenyl)-2,6-difluorobenzenesulfonamide] | 1000 to 10000 nM
100 to 1000 nM | – | 1 to 10 µM | – | Nc1ncc(-c2nc(N3CCOCC3)c3nc(-c4cccc(NS(=O)(=O)c5cc(F)ccc5F)c4F)ccc3n2)cn1 [Example 93, N-(3-(2-(2-aminopyrimidin 5-yl)-4-morpholinopyrido[3,2-d]pyrimidin-6-yl)-2-fluorophenyl)-2,5-difluorobenzenesulfonamide] | 100 to 1000 nM
1 to 100 nM | – | – | – | Cc1cc(-c2cccc(NS(=O)(=O)CCCF)c2F)cc2c(N3CCOCC3)nc(-c3cnc(N)nc3)nc12 [Example 116, N-(3-(2-(2-aminopyrimidin-5-yl)-8-methyl-4-morpholinoquinazolin-6-yl)-2-fluorophenyl)-3-fluoropropane-1-sulfonamide] | –
100 to 1000 nM | 100 to 1000 nM | – | 100 to 1000 nM | Nc1cc(F)c(-c2nc(N3CCOCC3)c3nc(-c4cccc(NS(=O)(=O)CCCF)c4F)ccc3n2)cn1 [Example 102, N-(3-(2-(6-amino-4-fluoropyridin-3-yl)-4-morpholinopyrido[3,2-d]pyrimidin-6-yl)-2-fluorophenyl)-3-fluoropropane-1-sulfonamide] | 100 to 1000 nM
1 to 100 nM | 100 to 1000 nM | – | 1 to 100 nM | COc1cc(-c2cccc(NS(=O)(=O)CCCF)c2F)cc2c(N3CCOC[C@H]3C)nc(-c3cnc(N)nc3)nc12 [Example 43, (R)-N-(3-(2-(2-aminopyrimidin-5-yl)-8-methoxy-4-(3-methylmorpholino)quinazolin-6-yl)-2-fluorophenyl)-3-fluoropropane-1-sulfonamide] | 100 to 1000 nM
1 to 100 nM | 100 to 1000 nM | – | 1 to 100 nM | O=S(=O)(CCCF)Nc1cccc(-c2ccc3nc(-c4ccc(NCCO)nc4)nc(N4CCOCC4)c3n2)c1F [Example 99, 3-fluoro-N-(2-fluoro-3-(2-(6-((2-hydroxyethyl)amino)pyridin-3-yl)-4-morpholinopyrido[3,2-d]pyrimidin-6-yl)phenyl)propane-1-sulfonamide] | 100 to 1000 nM
